Results: article PMC5683375, “Vasculotide reduces pulmonary hyperpermeability in experimental pneumococcal pneumonia” (Critical Care, 2017)
Entries after “also recorded” stand apart in the source; their conditions may differ.

Key:
[1] = test system: murine endotoxemia; settings: cited from earlier work
[2] = test system: S. pneumoniae; test: Bacterial burden in BALF and blood of Streptococcus pneumoniae-infected mice; settings: VT 500 ng i.v., 24 h and 48 h p.i., n = 8
Procedure: Mice were anesthetized with ketamine (80 mg/kg) and xylazine (25 mg/kg) and transnasally inoculated with 5 × 10^6 colony-forming units (CFU) of S. pneumoniae (NCTC7978) in 20 μl of sterile PBS as described before [35]. Sham-infected control mice received 20 μl of sterile PBS. After 22 h, 34 h, and 46 h, body weight and rectal temperature were measured, and different dosages of VT (100, 200, or 500 ng in 100 μl of PBS) or PBS were intravenously injected into the tail vein. Twenty-four or forty-eight hours postinfection (p.i.), mice were anesthetized (160 mg/kg ketamine and 75 mg/kg xylazine) and exsanguinated. […] Subsequently, lungs were flushed, and BAL was performed.
S. pneumoniae (S. pn.) infected mice (5x106
CFU/mouse) were intravenously (i.v.) treated with Vasculotide (VT; 500 ng) or PBS 22 h, 34
h and 46 h post infection (p.i.). The bacterial burden was quantified in bronchoalveolar lavage
fluid (BALF) and in blood 24 h or 48 h p.i.

[3] = test system: human immunoglobulin G (IgG) Fc; test: Tryptophan fluorescence spectroscopy, VT with human IgG Fc (specificity control); format: binding; settings: recombinant human IgG Fc
Procedure: Binding studies were carried out in 96 well plates (Brand-plates pureGrade reference 781607; BRAND GMBH + CO KG, Wertheim, Germany). Mouse Tie2Fc receptor and human immunoglobulin G (IgG) Fc were obtained from R&D Systems (Minneapolis, MN, USA). Dilutions were prepared in HyClone™ Dulbecco’s PBS (GE Healthcare Life Sciences, Mississauga, ON, Canada). The saturation binding curve was prepared with all ligand dilutions and receptors as 2× concentrations. Equal volumes of ligand and receptor were added to generate a final 1× concentration (500 nM Tie2Fc final concentration). Spectroscopic studies were performed on a SpectraMax M2 fluorometer (Molecular Devices, Sunnyvale, CA, USA). Measurements were taken at an excitation wavelength of 295 nm. Emission scans were set from 360 to 450 nm.

[4] = test system: mouse lungs; test: Isolated perfused and ventilated mouse lung, PLY-induced permeability (ex vivo); set-up: species or system mouse (C57BL/6 N); settings: VT 50 or 100 ng/ml, 15 minutes before PLY 1.4 μg/ml, BAL 30 minutes after PLY, HSA 0.04% in perfusate, n = 6-8
Procedure: Mouse lungs were prepared as described previously. Briefly, anesthetized mice were tracheotomized and ventilated. After sternotomy and cannulation of the left atrium and pulmonary artery, lungs were perfused with 37 °C sterile Krebs-Henseleit hydroxyethyl-amylopectin buffer (1 ml/minute) and ventilated by negative pressure (Pexp −4.5, Pins −9.0 cmH2O) in a humidified chamber. After a 20-minute steady state, continuous infusion of VT (50 or 100 ng/ml) or PBS was commenced. Five minutes later, human serum albumin (HSA) was admixed to the perfusate (0.04%) for permeability quantification. Ten minutes thereafter, 1.4 μg/ml PLY was infused into the pulmonary artery for 1 minute. Bronchoalveolar lavage (BAL) was performed 30 minutes after PLY application, and HSA concentration was measured in bronchoalveolar fluid (BALF).

[5] = test system: Streptococcus pneumoniae-infected mice; test: BALF leukocyte recruitment (FACS) in Streptococcus pneumoniae-infected mice; settings: VT 500 ng i.v., 24 h and 48 h p.i., n = 8
Procedure: (§1) For all experiments, female C57BL/6 N mice (8 to 10 weeks old, weighing 18 to 20 g; Charles River Laboratories, Sulzfeld, Germany) were used. Animals were housed under specific pathogen-free conditions under a 12–h/12-h light/dark cycle with free access to food and water.
(§2) Mice were anesthetized with ketamine (80 mg/kg) and xylazine (25 mg/kg) and transnasally inoculated with 5 × 10^6 colony-forming units (CFU) of S. pneumoniae (NCTC7978) in 20 μl of sterile PBS as described before [35]. Sham-infected control mice received 20 μl of sterile PBS. After 22 h, 34 h, and 46 h, body weight and rectal temperature were measured, and different dosages of VT (100, 200, or 500 ng in 100 μl of PBS) or PBS were intravenously injected into the tail vein. Twenty-four or forty-eight hours postinfection (p.i.), mice were anesthetized (160 mg/kg ketamine and 75 mg/kg xylazine) and exsanguinated. […] Subsequently, lungs were flushed, and BAL was performed. To determine permeability, HSA (1 mg/75 μl) was intravenously infused 1 h before lung preparation, and the BALF/plasma ratio was calculated as described elsewhere [35]. […] Cytokines from BALF were measured with a multiplex assay (ProcartaPlex; eBioscience), and plasma levels of interleukin (IL)-6 (BD Biosciences) and KC (keratinocyte chemoattractant; R&D Systems) were quantified by ELISA.

[6] = test system: Streptococcus pneumoniae-infected mice; test: Lung histology (edema formation, lung injury) in Streptococcus pneumoniae-infected mice; format: in vivo, mouse (C57BL/6 N)
Procedure: Identical experiments were performed separately for histological analyses of the lungs. Mice were anesthetized 24 h or 48 h p.i. […] After ligation of the trachea, mouse lungs were removed and immediately immersion-fixed in 4% buffered formalin, embedded in paraffin, cut into 2-μm-thick sections, and stained with hematoxylin and eosin as described elsewhere. The degree of edema formation was assessed semiquantitatively (0 = no edema, 1 = minimal edema, 2 = mild edema, 3 = moderate edema, 4 = severe edema). Three evenly distributed sections per lung were microscopically evaluated to assess edema formation.

[7] = test system: human pulmonary microvascular endothelial cells (hPMVEC); test: Immunofluorescence staining (VE-cadherin, actin) of human pulmonary microvascular endothelial cells; format: cell-based; settings: VT 300 ng/ml
Procedure: Human pulmonary microvascular endothelial cells (hPMVEC; PromoCell, Heidelberg, Germany), used at passages 4–6, were grown to confluence on glass slides, incubated with VT (300 ng/ml) or sterile PBS as a control for 90 minutes and then stimulated with LPS (0.1 μg/ml) from Escherichia coli (Sigma-Aldrich, Steinheim, Germany), PLY (0.25, 0.5, 0.75 μg/ml), or PBS. After 30 minutes, cells were fixed in 3% formalin, and the […] vascular endothelial (VE)-cadherin (1:400, goat antihuman VE-cadherin; Santa Cruz Biotechnology, Santa Cruz, CA, USA; secondary antibody 1:8000, Alexa Fluor 488 F(ab′)2 rabbit antigoat IgG (H + L), Invitrogen, Darmstadt, Germany) and actin fibers (1:2000; phalloidin Alexa 546-labeled; Invitrogen) were stained to evaluate cell morphology. 4′,6-diamidino-2-phenylindole staining (Sigma-Aldrich) was used to visualize cell nuclei. The immunofluorescence of the cells was analyzed by confocal microscopy using an LSM 780 microscope with ZEN 2011 software (objective: Plan Apochromat × 63/1.40 oil; Carl Zeiss Microscopy, Jena, Germany).

[8] = Body weight and temperature of Streptococcus pneumoniae-infected mice; settings: VT i.v. (500 ng in Figure S2), 46 h p.i. in Figure S2, vs infected, PBS-treated
[9] = test system: murine lung endothelial cells (mLEC); test: Transcellular electrical resistance (ECIS) of murine lung endothelial cells; settings: VT 2, 10, 50 ng/ml, 30 minutes pretreatment; PLY 0.75 μg/ml, 3 h; n = 4-7
Procedure: Briefly, mice were killed by an overdose of ketamine/xylazine. Lungs of four mice were pooled, minced, and digested by dispase (20 ml, 5 U/ml; BD Biosciences, Heidelberg, Germany) and DNase (20 ml, 0.5 mg/ml; AppliChem GmbH, Darmstadt, Germany). The homogenate was filtered, collected by centrifugation (300 × g), and washed twice, and the resulting cell suspension was incubated with antimouse VE-cadherin antibody (rat antimouse CD 144; BD Pharmingen, San Diego, CA, USA)-coated magnetic beads (sheep antirat IgG DynaBeads; Invitrogen GmbH, Karlsruhe, Germany) for positive isolation with the DynaMag-Spin magnet system (Invitrogen). The isolated cells were resuspended in Endothelial Cell Growth Medium MV2 (PromoCell), seeded onto fibronectin-coated (Sigma-Aldrich) culture dishes (diameter 35 mm), and grown to a confluent monolayer in 3–4 days. Then, cells were split after trypsinization [37], seeded and grown to confluence on fibronectin-coated evaporated gold microelectrodes (eight-well array with ten electrodes per well; ibidi GmbH, Martinsried, Germany) connected to an electric cell-substrate impedance sensing (ECIS) system (Applied Biophysics, Troy, NY, USA) [38] for continuous monitoring of transcellular electrical resistance (TER). Cells were pretreated with VT (2, 10, and 50 ng/ml) or PBS for 30 minutes and then stimulated with PLY (0.75 μg/ml) or PBS for 3 h.

[10] = test system: Streptococcus pneumoniae; test: Bacterial growth in vitro (optical density); format: cell-based, Streptococcus pneumoniae serotype 3 (NCTC7978); settings: VT 5 µg/ml, log-phase culture, THY media, 37°C, 5% CO2; OD every 30 min for 5 hours; preliminary experiment
Procedure: experiment, we investigated if Vasculotide (VT) has a direct effect on the bacterial growth of Streptococcus pneumoniae. Capsulated S. pneumoniae (S. pn.) serotype 3 (NCTC7978) was cultured on Columbia blood agar + 5% sheep blood for 8 h. Single colonies were transferred into THY media to yield OD600 = 0.03-0.04. Liquid cultures were incubated at 37°C and 5% CO2 for 2.5-4 h until the bacteria reached a phase of logarithmic growth (OD600 = 0.3-0.4).
30 min later, log-phase bacterial cultures were treated with VT (5 µg/ml) or PBS. Optical density was measured every 30 min for further 5 hours. Individual time-proliferation curves

[11] = test system: Streptococcus pneumoniae-infected mice; test: Plasma levels of IL-6 and KC (ELISA) in Streptococcus pneumoniae-infected mice; settings: VT 500 ng i.v., n = 8
Procedure: as §1, §2

[12] = test system: acute kidney injury; set-up: method as in PMID 26911791; settings: cited from earlier work

Substance: Vasculotide [VT]
- endotoxemia-induced lung vascular leakage [1]: prevent endotoxemia-induced lung vascular leakage
- protective effect in murine endotoxemia ([1]; endotoxemia): protective effect
- bacterial burden in BALF ([2]; BALF): did not affect; also recorded: not significantly reduced
- bacterial burden in blood ([2]; blood): did not affect; also recorded: not significantly reduced
- fluorescence intensity / binding with human IgG Fc [3]: No saturation of binding is observed; also recorded: no dose-dependent increase in fluorescence intensity
- PLY-induced lung hyperpermeability (HSA in BALF) [4]: decreased PLY-induced pulmonary permeability; also recorded: significantly decreased hyperpermeability of mouse lungs; also recorded: dose-dependently decreased hyperpermeability of mouse lungs
- pulmonary leukocyte recruitment (BALF) [5]: did not significantly reduce; also recorded: not significantly affected; also recorded: not significantly reduced
- lung injury (histology) ([6]; VT 500 ng i.v., 24 h and 48 h p.i., n = 3-4, vs PBS): reduced lung injury
- perivascular edema formation, 24 h p.i. ([6]; VT 500 ng i.v., 24 h p.i., n = 3-4, vs PBS): considerably reduced
- neutrophil infiltration of perivascular spaces, 48 h p.i. ([6]; VT 500 ng i.v., 48 h p.i., n = 3-4): without differences between the VT-treated and untreated infected groups
- alveolar edema formation, 48 h p.i. ([6]; VT 500 ng i.v., 48 h p.i., n = 3-4, vs PBS): diminished; also recorded: almost completely abolished (three of four mice); also recorded: nearly devoid of the additional massive alveolar edema formation
- perivascular edema, 48 h p.i. ([6]; VT 500 ng i.v., 48 h p.i., n = 3-4, vs untreated (PBS)): less perivascular edema than the untreated group
- edema or other pathological changes in perivascular spaces, sham-infected ([6]; sham-infected groups, VT 500 ng i.v. or PBS, 24 h and 48 h p.i.): no edema formation or other pathological changes
- monolayer stabilization (gap formation, stress fibers, cell loss) after LPS or PLY ([7]; 90 minutes pretreatment, LPS 0.1 μg/ml or PLY 0.25, 0.5, 0.75 μg/ml for 30 minutes, three independent experiments): stabilized cell monolayers, protected from gap formation, and reduced stress fibers as well as cell loss; also recorded: stabilized the cell monolayer, avoided gap formation, and reduced stress fibers and cell loss from culture dishes
- effect on unstimulated hPMVEC monolayer ([7]; 90 minutes, no LPS or PLY): no effect of VT pretreatment was observed; also recorded: intact monolayers with tight intercellular contacts and thin actin fibers
- body weight [8]: did not influence; also recorded: not affected
- body temperature ([8]; rectal): did not influence; also recorded: not affected
- PLY-induced TER decrease [9]: attenuated the PLY-induced TER decrease in a dose-dependent manner
- direct antimicrobial activity / bacterial growth [10]: did not affect bacterial growth in vitro; also recorded: failed to show a direct antimicrobial activity
- IL-6 and KC plasma levels, trend ([11]; 24 h and 48 h p.i.): slightly decreased by trend
- IL-6 plasma level, 24 h p.i. ([11]; 24 h p.i.): significantly reduced
- IL-6 plasma level, 48 h p.i. ([11]; 48 h p.i.): did not differ
- barrier disruption in acute kidney injury [12]: protective effect; also recorded: diminish barrier disruption
